From ChEMBL document CHEMBL5096158, “HIV latency reversal agents: A potential path for functional cure?” (Eur J Med Chem, 2021)
Each block holds one molecule with its values, some of them ahead of it.

How the values were obtained:
[1] = tested on: Human immunodeficiency virus 1; test: Reactivation of HIV-1 latency infected in GFP-fused human J-Lat 9.2 cells assessed as increase in GFP expression at 1 uM incubated for 24 hrs by flow cytometry; assay type: functional
[2] = Cytotoxicity against human U1 cells assessed as reduction in cell viability incubated for 48 hrs by WST-8 assay; assay type: toxicity, cell-based
[3] = Cytotoxicity against human ACH-2 cells assessed as reduction in cell viability incubated for 48 hrs by WST-8 assay; assay type: toxicity, cell-based
[4] = tested on: Human immunodeficiency virus 1; test: Reversal of HIV-1 latency in human ACH-2 cells assessed as increase in GFP positive cells incubated for 24 hrs by flow cytometry; assay type: functional, organism-based, ACH-2 cell line; conditions: Human immunodeficiency virus 1, ACH-2, 24 h
[5] = Cytotoxicity against human PBMC cells assessed as reduction in cell viability incubated for 48 hrs by WST-8 assay; assay type: toxicity, cell-based
[6] = Inhibition of HIV-1 latency infected in human U1 cells assessed as increase in p24 expression level incubated for 48 hrs by ELISA; assay type: functional, cell-based; conditions: Human immunodeficiency virus 1, U1, 48 h
[7] = target: Protein kinase C gamma type (Homo sapiens, UniProt P05129); test: Displacement of 3H-PDBu from recombinant human PKCgamma incubated for 25 mins by scintillation counter analysis
[8] = tested on: Human immunodeficiency virus 1; test: Reactivation of HIV-1 latency in human J-Lat Tat-GFP Clone A1 cells assessed as increase in GFP expression at 375 pM incubated for 24 hrs by flow cytometry; assay type: functional
[9] = tested on: Human immunodeficiency virus 1; test: Reactivation of HIV-1 latency in human J-Lat Tat-GFP Clone A1 cells assessed as increase in GFP expression at 23 pM incubated for 24 hrs by flow cytometry; assay type: functional
[10] = tested on: Human immunodeficiency virus 1; test: Reactivation of HIV-1 latency in human CD4+ve Th cells assessed as increase in GFP expression at 3 nM incubated for 24 hrs by flow cytometry; assay type: functional
[11] = tested on: Human immunodeficiency virus 1; test: Reactivation of HIV-1 latency in human U1 cells assessed as fold increase in HIV transcription by measuring GFP expression at 6 nM incubated for 24 hrs in presence of JQ1 by flow cytometry; assay type: functional
[12] = tested on: Human immunodeficiency virus 1; test: Reactivation of HIV-1 latency in human U1 cells assessed as fold increase in HIV transcription by measuring GFP expression at 6 nM incubated for 24 hrs by flow cytometry; assay type: functional
[13] = tested on: Human immunodeficiency virus 1; test: Reversal of HIV-1 latency in human PBMC from HIV infected donors assessed as increase in p24Gag viral protein level incubated for 24 hrs by ELISA; assay type: functional
[14] = tested on: Human immunodeficiency virus 1; test: Reactivation of HIV-1 latency infected in GFP-fused human J-Lat C11 cells assessed as increase in GFP expression incubated for 48 hrs by flow cytometry; assay type: functional, organism-based; conditions: Human immunodeficiency virus 1, J-Lat C11, 48 h
[15] = tested on: Human immunodeficiency virus 1; test: Reactivation of HIV-1 latency infected in GFP-fused human J-Lat 10.6 cells assessed as increase in GFP expression incubated for 48 hrs by flow cytometry; assay type: functional, organism-based; conditions: Human immunodeficiency virus 1, J-Lat 10.6, 48 h
[16] = tested on: Human immunodeficiency virus 1; test: Reversal of HIV-1 latency in human J-Lat 8.4 cells assessed as increase in GFP expression incubated for 24 hrs by flow cytometry; assay type: functional, organism-based; conditions: Human immunodeficiency virus 1, J-Lat 8.4, 24 h
[17] = tested on: Human immunodeficiency virus 1; test: Reversal of HIV-1 latency in human J-Lat 9.2 cells assessed as increase in GFP expression incubated for 24 hrs by flow cytometry; assay type: functional, organism-based; conditions: Human immunodeficiency virus 1, J-Lat 9.2, 24 h
[18] = tested on: Human immunodeficiency virus 1; test: Reversal of HIV-1 latency in human J-Lat 10.6 cells assessed as increase in GFP expression incubated for 24 hrs by flow cytometry; assay type: functional, organism-based; conditions: Human immunodeficiency virus 1, J-Lat 10.6, 24 h

Compound: CCCc1nc2c(N)nc3ccccc3c2s1
Activity [1]: 18%

Compound: CCCCCCCCCCc1ccc2c(c1)N(C)[C@@H](C(C)C)C(=O)NC(CO)C2 (some centres undefined)
CC50 at 48 h [2]: 61200 nM
CC50 at 48 h [3]: 21100 nM
EC50 [4]: 25 nM
CC50 at 48 h [5]: 39900 nM

EC50 [6]: 10.2 nM
Ki [7]: 0.65 nM
Compound: CC1=C[C@H]2[C@@]3(O)[C@H](C)C[C@]4(OC(=O)Cc5cccc6ccccc56)[C@H]([C@@H]3C=C(CO)C[C@]2(O)C1=O)C4(C)C

Compound: CCCCCC(=O)O[C@H]1C(C)=C[C@]23C(=O)[C@H](C=C(CO)[C@@H](O)[C@]12O)C1C(C[C@H]3C)C1(C)C (some centres undefined)
Activity [8]: 50%
Activity [9]: 20%
Activity [10]: 100%

Compound: C/C=C(\C)C(=O)O[C@H]1C(C)=C[C@]23C(=O)[C@H](C=C(CO)[C@@H](O)[C@]12O)C1C(C[C@H]3C)C1(C)C (some centres undefined)
fold change (FC) [11]: 250
fold change (FC) [12]: 25

Compound: CO[C@@H](CC[C@H](C)[C@H]1O[C@@]23C[C@H](OC(=O)C[C@H]([C@@H](C)O)OC(=O)C[C@](O)(O2)[C@H](C)CC3(C)C)[C@@H]1C)c1cc(O)ccc1Br [APLYSIATOXIN]
Activity [13]: 56%

Compound: CC(=O)O[C@@]12C[C@@H](C)[C@@]3(O)[C@@H](C=C(CO)C[C@]4(O)C(=O)C(C)=C[C@@H]34)[C@@H]1C2(C)C [PROSTRATIN]
EC50 [14]: 768 nM
EC50 [15]: 865 nM
EC50 [16]: 11 nM
EC50 [17]: 45 nM
EC50 [6]: > 1000 nM
EC50 [18]: 3.3 nM
